Assay results from article PMC4780864, “Family-wide Structural Analysis of Human Numb-Associated Protein Kinases” (Structure(London, England:1993), 2016).

How the values were obtained:
[1] = target: T1, AAK1 (Homo sapiens, UniProt Q2M2I8); test: ITC; thermal shift
[2] = target: T2, MPSK1 (Homo sapiens, UniProt O75716); test: biochemical; design: Thermal shift assay (DSF, SYPRO Orange), 2 uM kinase domain, mean delta Tm of triplicates versus DMSO; conditions: for ΔTm at 12.5 µM: read-out: MPSK1
T2 construct: gene STK16; catalytic domain-containing construct
Protocol: (§1) All measurements were performed in triplicate and mean values were reported for all compounds (Table S1). […] However, NAKs are often omitted from selectivity panels, including commercial screens.

[3] = target: T3, GAK (Homo sapiens, UniProt O14976); test: biochemical; design: Thermal shift assay (DSF, SYPRO Orange), 2 uM kinase domain, mean delta Tm of triplicates versus DMSO; conditions: read-out: GAK
T3 construct: catalytic domain-containing construct
T3 sequence (O14976 1-1311): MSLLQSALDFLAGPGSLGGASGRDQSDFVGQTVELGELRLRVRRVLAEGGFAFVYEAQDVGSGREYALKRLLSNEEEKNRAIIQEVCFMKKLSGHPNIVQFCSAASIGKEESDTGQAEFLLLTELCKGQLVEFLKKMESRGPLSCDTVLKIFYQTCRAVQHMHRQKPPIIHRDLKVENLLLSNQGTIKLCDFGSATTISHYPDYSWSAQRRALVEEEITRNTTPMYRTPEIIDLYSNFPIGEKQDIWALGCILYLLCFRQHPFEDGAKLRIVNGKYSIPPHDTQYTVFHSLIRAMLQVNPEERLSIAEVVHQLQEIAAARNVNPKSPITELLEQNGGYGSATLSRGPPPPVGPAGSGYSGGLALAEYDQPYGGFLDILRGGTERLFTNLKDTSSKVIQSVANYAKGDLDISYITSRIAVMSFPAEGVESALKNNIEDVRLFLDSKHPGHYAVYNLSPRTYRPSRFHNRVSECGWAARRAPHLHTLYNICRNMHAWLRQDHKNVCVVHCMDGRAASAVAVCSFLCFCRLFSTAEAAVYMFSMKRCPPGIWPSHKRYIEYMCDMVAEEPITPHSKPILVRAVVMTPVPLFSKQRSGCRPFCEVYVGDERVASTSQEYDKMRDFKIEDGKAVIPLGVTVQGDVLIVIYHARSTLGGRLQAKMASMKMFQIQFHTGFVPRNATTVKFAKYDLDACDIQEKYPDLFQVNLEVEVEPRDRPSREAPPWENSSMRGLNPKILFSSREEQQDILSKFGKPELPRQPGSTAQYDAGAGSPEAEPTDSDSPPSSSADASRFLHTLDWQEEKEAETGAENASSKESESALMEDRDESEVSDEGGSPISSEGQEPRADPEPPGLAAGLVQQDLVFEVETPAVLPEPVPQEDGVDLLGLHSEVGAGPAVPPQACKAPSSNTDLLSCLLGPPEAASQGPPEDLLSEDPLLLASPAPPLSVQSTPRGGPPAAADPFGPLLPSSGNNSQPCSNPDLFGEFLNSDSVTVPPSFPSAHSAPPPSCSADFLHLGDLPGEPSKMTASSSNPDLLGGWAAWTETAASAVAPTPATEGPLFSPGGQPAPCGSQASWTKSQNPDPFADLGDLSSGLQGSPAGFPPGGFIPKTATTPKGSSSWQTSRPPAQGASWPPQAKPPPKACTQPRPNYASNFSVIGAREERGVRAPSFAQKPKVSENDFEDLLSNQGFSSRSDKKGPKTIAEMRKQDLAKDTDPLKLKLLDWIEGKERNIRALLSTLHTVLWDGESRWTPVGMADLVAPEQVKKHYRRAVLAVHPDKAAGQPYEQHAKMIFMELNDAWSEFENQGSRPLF
Protocol: as §1

[4] = target: T4, BIKE (Homo sapiens, UniProt Q9NSY1); test: biochemical; design: Thermal shift assay (DSF, SYPRO Orange), 2 uM kinase domain, mean delta Tm of triplicates versus DMSO; conditions: read-out: BIKE
T4 construct: gene BMP2K; catalytic domain-containing construct
Protocol: as §1

[5] = target: T1, AAK1; test: biochemical; design: kinase domain; Thermal shift assay (DSF, SYPRO Orange), 2 uM kinase domain, mean delta Tm of triplicates versus DMSO; conditions: for ΔTm at 12.5 µM: read-out: AAK1
Protocol: as §1

[6] = target: T5, BIKE (Homo sapiens, UniProt Q9NSY1, K320A/K321A); test: co-crystal structure ([…] Å); ITC; thermal shift; format: binding
T5 construct: gene BMP2K; BIKE38–345 (kinase domain)
T5 sequence (Q9NSY1 38-345 K320A/K321A): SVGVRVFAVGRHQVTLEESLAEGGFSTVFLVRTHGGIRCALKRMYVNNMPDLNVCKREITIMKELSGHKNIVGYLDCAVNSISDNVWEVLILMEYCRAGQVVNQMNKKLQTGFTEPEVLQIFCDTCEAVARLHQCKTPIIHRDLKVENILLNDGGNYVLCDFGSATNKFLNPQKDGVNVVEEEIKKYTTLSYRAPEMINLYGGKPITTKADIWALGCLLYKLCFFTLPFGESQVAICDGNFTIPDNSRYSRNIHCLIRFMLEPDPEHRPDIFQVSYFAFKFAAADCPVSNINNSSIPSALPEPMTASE

T1 sequence (Q2M2I8 27-365 limits assumed): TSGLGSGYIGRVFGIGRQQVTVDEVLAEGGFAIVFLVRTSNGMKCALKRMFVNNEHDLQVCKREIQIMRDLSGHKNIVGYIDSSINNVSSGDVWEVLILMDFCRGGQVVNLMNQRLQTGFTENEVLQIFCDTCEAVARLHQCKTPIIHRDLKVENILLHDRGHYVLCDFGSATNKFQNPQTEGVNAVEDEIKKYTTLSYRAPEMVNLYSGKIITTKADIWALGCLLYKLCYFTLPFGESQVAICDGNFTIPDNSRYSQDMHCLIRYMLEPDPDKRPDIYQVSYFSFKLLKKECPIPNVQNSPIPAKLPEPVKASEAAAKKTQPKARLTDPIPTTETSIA
T4 sequence (Q9NSY1 whole entry, the tested form may be a part): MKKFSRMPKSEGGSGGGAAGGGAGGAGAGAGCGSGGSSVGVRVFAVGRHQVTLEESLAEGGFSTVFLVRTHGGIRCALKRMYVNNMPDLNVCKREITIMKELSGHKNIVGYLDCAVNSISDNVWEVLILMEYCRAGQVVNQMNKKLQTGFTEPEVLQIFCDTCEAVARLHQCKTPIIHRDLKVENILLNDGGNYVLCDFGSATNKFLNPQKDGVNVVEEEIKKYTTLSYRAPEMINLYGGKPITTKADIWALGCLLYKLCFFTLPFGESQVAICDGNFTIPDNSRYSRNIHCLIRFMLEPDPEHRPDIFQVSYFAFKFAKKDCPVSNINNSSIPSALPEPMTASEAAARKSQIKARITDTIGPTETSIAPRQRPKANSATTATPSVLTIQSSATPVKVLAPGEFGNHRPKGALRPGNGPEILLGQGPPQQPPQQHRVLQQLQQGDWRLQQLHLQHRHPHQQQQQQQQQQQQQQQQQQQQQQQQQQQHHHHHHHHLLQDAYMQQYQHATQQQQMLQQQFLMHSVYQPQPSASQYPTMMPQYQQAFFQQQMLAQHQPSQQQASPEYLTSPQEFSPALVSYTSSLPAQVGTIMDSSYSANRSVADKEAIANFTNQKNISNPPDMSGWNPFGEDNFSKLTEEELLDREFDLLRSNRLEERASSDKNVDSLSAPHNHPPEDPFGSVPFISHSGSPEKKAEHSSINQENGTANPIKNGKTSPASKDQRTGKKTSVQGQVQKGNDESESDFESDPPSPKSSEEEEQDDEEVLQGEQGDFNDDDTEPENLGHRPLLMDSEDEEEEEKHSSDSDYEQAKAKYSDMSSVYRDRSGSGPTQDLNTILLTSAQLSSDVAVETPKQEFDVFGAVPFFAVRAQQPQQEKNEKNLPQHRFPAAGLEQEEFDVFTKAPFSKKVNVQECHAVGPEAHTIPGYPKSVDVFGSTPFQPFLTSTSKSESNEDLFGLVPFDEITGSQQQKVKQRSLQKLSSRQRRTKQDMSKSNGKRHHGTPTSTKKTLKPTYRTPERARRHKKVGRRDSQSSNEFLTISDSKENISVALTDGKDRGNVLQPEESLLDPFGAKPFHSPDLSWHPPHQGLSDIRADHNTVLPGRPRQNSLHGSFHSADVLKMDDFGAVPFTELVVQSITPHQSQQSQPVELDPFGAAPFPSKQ
T2 sequence (O75716 whole entry, the tested form may be a part): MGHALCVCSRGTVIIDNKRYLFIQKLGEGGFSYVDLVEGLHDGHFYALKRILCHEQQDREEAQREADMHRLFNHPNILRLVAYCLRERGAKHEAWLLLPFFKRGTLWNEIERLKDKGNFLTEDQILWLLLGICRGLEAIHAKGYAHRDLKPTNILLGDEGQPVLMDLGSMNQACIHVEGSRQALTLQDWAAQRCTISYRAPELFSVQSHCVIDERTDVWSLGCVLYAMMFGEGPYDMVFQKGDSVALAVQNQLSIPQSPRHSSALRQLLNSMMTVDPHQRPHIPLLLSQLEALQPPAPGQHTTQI

SMILES: NC(=O)Nc1cc(-c2cccc(F)c2)sc1C(=O)N[C@H]1CCCNC1 [AZD7762]
- Kd [1]: 36.5 nM
- ΔTm at 12.5 µM [2]: 3.46 °C
- ΔTm at 12.5 µM [3]: 5.39 °C
- ΔTm at 12.5 µM [4]: 12.6 °C
- ΔTm at 12.5 µM [5]: 10.8 °C
- Kd [6]: 33.1 nM

SMILES: CCCS(=O)(=O)Nc1ccc(F)c(C(=O)c2c[nH]c3ncc(-c4ccc(Cl)cc4)cc23)c1F [Vemurafenib]
- ΔTm at 12.5 µM [2]: 5.18 °C
- ΔTm at 12.5 µM [3]: 2.66 °C
- ΔTm at 12.5 µM [4]: 4.24 °C
- ΔTm at 12.5 µM [5]: 2.06 °C

SMILES: CC[C@@H]1C(=O)N(C)c2cnc(Nc3ccc(C(=O)N[C@H]4CC[C@H](N5CCN(CC6CC6)CC5)CC4)cc3OC)nc2N1C(C)C [Volasertib]
- ΔTm at 12.5 µM [2]: 4.59 °C
- ΔTm at 12.5 µM [3]: 2.74 °C
- ΔTm at 12.5 µM [4]: 3.48 °C
- ΔTm at 12.5 µM [5]: 3.06 °C

SMILES: CCn1c(=O)c(-c2cc[nH]n2)cc2c(C)nc(N)nc21 [Voxtalisib]
- ΔTm at 12.5 µM [2]: 0.32 °C
- ΔTm at 12.5 µM [3]: 0.99 °C
- ΔTm at 12.5 µM [4]: 0.73 °C
- ΔTm at 12.5 µM [5]: 0.657 °C

SMILES: FC(F)c1nc2ccccc2n1-c1nc(N2CCOCC2)nc(N2CCOCC2)n1 [ZSTK474]
- ΔTm at 12.5 µM [2]: 1.24 °C
- ΔTm at 12.5 µM [3]: 0.02 °C
- ΔTm at 12.5 µM [4]: 0.633 °C
- ΔTm at 12.5 µM [5]: 0.383 °C

SMILES: CCS(=O)(=O)N1CC(CC#N)(n2cc(-c3ncnc4[nH]ccc34)cn2)C1 [baricitinib]
- MPSK1 ([2]; 12.5 µM): 4.053 °C
- ΔTm at 12.5 µM [3]: 2.06 °C
- ΔTm at 12.5 µM [4]: 10.2 °C
- AAK1 ([5]; 12.5 µM): 8.293 °C

SMILES: COC(=O)c1ccc2c(c1)NC(=O)/C2=C(\Nc1ccc(N(C)C(=O)CN2CCN(C)CC2)cc1)c1ccccc1 [nintedanib]
- ΔTm at 12.5 µM [2]: 6.33 °C
- ΔTm at 12.5 µM [3]: 0.58 °C
- ΔTm at 12.5 µM [4]: 7.61 °C
- ΔTm at 12.5 µM [5]: 1.78 °C
